Values of other authors as cited in patent US20040024065A1, “Novel metabolic targets and markers” (priority 2002, published 2004).

What was measured:
PEMT = conditions: alcohol consumption, before the development of cirrhosis
rat hepatocytes = rat hepatocytes incubated with inhibitor

SMILES	activity of PEMT (PEMT)	PC synthesis via methylation of PE derived from ethanolamine, inhibited (rat hepatocytes)	amount of PE in the cells (rat hepatocytes)	amount of PE secreted into the medium, increase (rat hepatocytes) [%]	secretion of the apoproteins into VLDL, LDL, HDL fractions or fraction with density greater than 1.18 g/ml (rat hepatocytes)
CCO [alcohol]	depresses	–	–	–	–
Nc1nccc2c1ncn2[C@@H]1O[C@H](CO)[C@@H](O)[C@H]1O [3-deazaadenosine]	–	more than 95%	doubled	70	not affected
